Experimental data as given in EP0036269A1, “Substituted benzamides” (BEECHAM GROUP PLC, priority 1980, dated 1981).
Where two headings read alike, the source gives them in different places.

How the values were obtained:
Type in all cases: in vivo
[1] = tested on: apomorphine induced stereotypy; experiment: Inhibition of apomorphine-induced biting in the rat; conditions: apomorphine 5 mg/kg sc, compounds administered subcutaneously 15 minutes after apomorphine, stereotypy scored for 90 mins
Protocol: (§1) Compounds were also tested for their ability to inhibit apomorphine induced stereotypy in rodents. Inactivity in these tests may be indicative of a low propensity to produce extra pyramidal side effects in man. The tests used were as follows.
Apomorphine 5 mg/kg sc induces a stereotypic gnawing behaviour in rats which can be measured by a subjective scoring system; score O - animal behaving normally; score 1 - increased locomotion activity with occassional sniffing and licking; score 2 - persistent licking of the bars of the cage with occassional biting; score 3 - more sustained biting; score 4 - intense biting at a particular part of the cage, animal no longer moving about.
Animals are individually placed in wire cages and after being allowed to become acclimatised are injected with apomorphine 5 mg/kg sc. Stereotypy is scored at 10 min intervals for 90 mins after apomorphine. Compounds are administered subcutaneously 15 minutes after the apomorphine.

[2] = tested on: intra-gastric pressure in the rat; experiment: Increase in intragastric pressure in the rat; conditions: conscious restrained starved rats, 40 minute period after administration; for minimal effective dose: Rattus norvegicus, po, 40 min, read-out: minimum dose for activity
Protocol: The compounds of the Examples were tested for pharmacological activity in increasing intra-gastric pressure in the rat. Intragastric pressure changes were recorded from previously starved conscious and restrained rats using a fluid filled catheter inserted into the lumen of the stomach via a permanent gastric fistula. The catheter was connected to a physiological pressure transducer and pressure changes recorded on a hot wire pen recorder. In each animal a pre-dose period of 40 minutes was allowed to obtain a measure of spontaneous activity. An index of activity was obtained by measuring the average height of pressure waves during 10 minute periods. Values for 4 such periods were obtained during assessment of spontaneous activity and for the 40 minute period after the administration of the Compounds. Student "t" test was applied to the difference in average values obtained for spontaneous and post compound activity.

[3] = tested on: apomorphine induced stereotypy; experiment: Inhibition of apomorphine-induced climbing in the mouse; conditions: for ED50: sc, inhibition of climbing induced by apomorphine 1 mg/kg sc
Protocol: as §1
This test is based on that described by Protain, P. et al (1976) Psychopharmacol. 50, 1-6.
Apomorphine 1 mg/kg sc induced mice to climb the wall of a wire cage (inverted food hopper - 11 x 7.5 x 18 cm high). Mice acclimatised in their home cages in groups of 5 are placed under the hoppers immediately after the injection of apomorphine 1 mg/kg SC. At 10, 20 and 30 minutes after injection climbing behaviour scored. The mice are observed for 30 seconds and scored according to the position in which they spend the majority of time; score O - four paws on floor of cage; score 1 - 2 paws only on walls; score 2 - all four paws on wall of cage.
The scores at all 3 times for each mouse are summed for apomorphine only and for apomorphine plus compound groups of mice

SMILES: COc1cc(N)c(Cl)cc1C(=O)NCC1CCCC2CCCCN2C1 (racemic) [Example 8, (±) 4-Amino-5-chloro-2-methoxy-N-[3'-(1'-azabicyclo[5,4, O]-hendecyl-methyl)]-benzamide]
- Inhibition of apomorphine-induced biting [1]: inactive

SMILES: COc1cc(N)c(Cl)cc1C(=O)NCC1CC2CCCCN2C1 (racemic) [Example 12, (±) 4-Amino-5-chloro-2-methoxy-N-(2'-indolizidinyl-methyl)-benzamide]
- Inhibition of apomorphine-induced biting [1]: inactive

SMILES: COc1cc(N)c(Cl)cc1C(=O)NCC1CCC2CCCCN2C1 (single isomer, unassigned) [2 (Isomer B), (±) 4-Amino-5-chloro-2-methoxy-N-(3'-quinolizidinyl-methyl)-benzamide]
- minimum dose for activity ([2]; Subcut): 5.0 mg/kg
- minimum dose for activity ([2]; oral): 5.0 mg/kg
- Inhibition of apomorphine-induced biting [1]: inactive

SMILES: COc1cc(N)c(Cl)cc1C(=O)NCC1CCCN2CCCCC12 (single isomer, unassigned) [4 (Isomer B), (±) 4-Amino-5-chloro-2-methoxy-N-(1'-guinolizidinyl-methyl)-benzamide]
- Inhibition of apomorphine-induced biting [1]: inactive

SMILES: COc1cc(N)c(Cl)cc1C(=O)NCC1CCC2CCCCN21 (single isomer, unassigned) [14 (Isomer B), (±) 4-Amino-5-chloro-2-methoxy-N-(3'-indolizidiny-methyl)-benzamide]
- minimal effective dose ([2]; Subcut): 0.2 mg/kg
- Inhibition of apomorphine-induced biting [1]: inactive
- ED50 [3]: 15 mg/kg

SMILES: COc1cc(N)c(Cl)cc1C(=O)NCC1CCC2CCCCN2C1 (single isomer, unassigned) [Example 2 (Isomer A), (±) 4-Amino-5-chloro-2-methoxy-N-(3'-quinolizidinyl-methyl)-benzamide]
- minimal effective dose ([2]; oral): 5 mg/kg
- minimum dose for activity ([2]; Subcut): 0.2 mg/kg
- Inhibition of apomorphine-induced biting [1]: inactive
- Inhibition of climbing ([3]; apomorphine 1 mg/kg sc, climbing scored at 10, 20 and 30 minutes): inactive

SMILES: COc1cc(N)c(Cl)cc1C(=O)NCC1CCCN2CCCCC12 (single isomer, unassigned) [Example 4 (Isomer A), (±) 4-Amino-5-chloro-2-methoxy-N-(1'-guinolizidinyl-methyl)-benzamide]
- Inhibition of apomorphine-induced biting [1]: inactive

SMILES: COc1cc(N)c(Cl)cc1C(=O)NCC1CCC2CCCCN21 (single isomer, unassigned) [Example 14 (Isomer A), (±) 4-Amino-5-chloro-2-methoxy-N-(3'-indolizidiny-methyl)-benzamide]
- Inhibition of apomorphine-induced biting [1]: inactive
- ED50 ([3]; Mus musculus, read-out: ED50): 20 mg/kg
